Reference: the supplement of paper PMC8149375

Assays:
Conditions in all cases: treatment: drug alone; 5 days
[1] = test system: TK-10; test: minimum viability across doses, drug alone, relative to DMSO (fraction); higher = less growth inhibition
Description: (§1)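 Primary HTS: 8 RCC cell lines treated with 8 doses (up to 10 uM) of each library drug alone for 5 days; viability read by CellTiter-Glo and normalised to DMSO. GI50 was fitted with XLfit (4-parameter), AUC is the area under the dose-response curve, and minimum viability is the lowest fraction of DMSO viability across doses.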

[2] = test system: 786-O; test: as above
Description: as §1

[3] = test system: CAKI-1; test: as above
Description: as §1

[4] = test system: 769-P; test: as above
Description: as §1

[5] = test system: ACHN; test: as above
Description: as §1

[6] = test system: SN12C; test: as above
Description: as §1

[7] = test system: A498; test: as above
Description: as §1

[8] = test system: UO-31; test: as above
Description: as §1

[9] = test system: TK-10; test: GI50, drug alone; higher = less potent
Description: as §1

[10] = test system: 786-O; test: GI50, drug alone; higher = less potent
Description: as §1

[11] = test system: CAKI-1; test: GI50, drug alone; higher = less potent
Description: as §1

[12] = test system: 769-P; test: GI50, drug alone; higher = less potent
Description: as §1

[13] = test system: ACHN; test: GI50, drug alone; higher = less potent
Description: as §1

[14] = test system: SN12C; test: GI50, drug alone; higher = less potent
Description: as §1

[15] = test system: A498; test: GI50, drug alone; higher = less potent
Description: as §1

[16] = test system: UO-31; test: GI50, drug alone; higher = less potent
Description: as §1

[17] = test system: TK-10; test: AUC of dose-response viability curve, drug alone (arbitrary (AUC of normalised viability)); higher = less growth inhibition
Description: as §1

[18] = test system: 786-O; test: as above
Description: as §1

[19] = test system: CAKI-1; test: as above
Description: as §1

[20] = test system: 769-P; test: as above
Description: as §1

[21] = test system: ACHN; test: as above
Description: as §1

[22] = test system: SN12C; test: as above
Description: as §1

[23] = test system: A498; test: as above
Description: as §1

[24] = test system: UO-31; test: as above
Description: as §1

SMILES	minimum viability across doses [1]	minimum viability across doses [2]	minimum viability across doses [3]	minimum viability across doses [4]	minimum viability across doses [5]	minimum viability across doses [6]	minimum viability across doses [7]	minimum viability across doses [8]	GI50, drug alone [9] [µM]	GI50, drug alone [10] [µM]	GI50, drug alone [11] [µM]	GI50, drug alone [12] [µM]	GI50, drug alone [13] [µM]	GI50, drug alone [14] [µM]	GI50, drug alone [15] [µM]	GI50, drug alone [16] [µM]	AUC of dose-response viability curve [17]	AUC of dose-response viability curve [18]	AUC of dose-response viability curve [19]	AUC of dose-response viability curve [20]	AUC of dose-response viability curve [21]	AUC of dose-response viability curve [22]	AUC of dose-response viability curve [23]	AUC of dose-response viability curve [24]
CCS(=O)(=O)Nc1ccc2c(c1)/C(=C(/Nc1ccc(CN3CCCCC3)cc1)c1ccccc1)C(=O)N2 [Hesperadin]	0.0523	0.0109	0.0394	0.0547	0.00749	0.00306	0.0284	0.0115	1.46	0.0639	0.189	1.18	0.111	0.199	2.5	2.49	2.46	1.54	1.85	2.53	1.63	1.86	3.72	3.32
O=C(Nc1cc(C(F)(F)F)cc(C(F)(F)F)c1)c1cc(Cl)ccc1O [IMD 0354]	0.0653	0.00771	0.036	0.0108	0.00484	0.00716	0.0128	0.019	1.22	0.412	1.08	1.29	0.943	1.35	1.59	2.96	2.4	2.03	2.8	2.71	2.4	2.67	3.46	4.73
CC(C)n1nc(-c2ccc3oc(N)nc3c2)c2c(N)ncnc21 [INK 128]	0.0249	0.00552	0.0368	0.0864	0.0484	0.0865	0.104	0.00678	0.012	0.00665	0.0344	0.0504	0.0152	0.039	0.071	0.0252	0.931	0.69	1.12	1.34	0.901	1.27	1.63	0.778
Cc1ccc(NC(=O)c2ccc(CN3CCN(C)CC3)cc2)cc1Nc1nccc(-c2cccnc2)n1 [Imatinib (Gleevec)]	0.829	0.514	0.891	0.858	0.802	0.77	0.919	1.03	> 10	> 10	> 10	> 10	> 10	> 10	> 10	> 10	3.07	2.36	3.35	3.23	3.41	3.06	3.83	4.67
